Patent publication EP0643699B1, “6-(2-HYDROXYETHYLAMINOALKYL)-5,11-DIOXO-5,6-DIHYDRO-11H- INDENO[1,2-C]ISOQUINOLINES AND THEIR USE AS ANTINEOPLASTIC AGENTS” (priority 1991, dated 1993)
Where two headings read alike, the source gives them in different places. Marks after values point to notes of the source that are not given here.

Experiments:
[1] = test system: Yoshida ascites cells; assay: Cytotoxicity: incorporation of [3H]thymidine and [14C]uridine into trichloroacetic acid-insoluble fraction of cells; format: cell-based, Wistar rats
Excerpt: The degree of influence on the incorporation of [^3H]thymidine and [^14C]uridine into the fraction of Yoshida ascites cells insoluble in trichloroacetic acid serves as the measure of cytotoxicity.

[2] = test system: Sa37 sarcoma; assay: Antitumour activity in S37 ascites sarcoma bearing mice (tumour weight, total ascitocrit, survival); format: in vivo, mice H; settings: for mean value of the tumour weight in comparison with the untreated control group / mean value of tumour cell fraction in ascites fluid (total ascitocrit) in comparison with the untreated control group: eight daily doses; for Survival time (T/C, %) / Total ascitocrit (T/C, %) / Tumour weight (T/C, %): administered in four days
Excerpt: (§1) The antineoplastic activity of the compounds of the invention has been investigated testing the compounds of the chemical group "in vivo" against experimental rodent tumors such as the solid form of Ehrlich tumour (STE, originally mammary adenocarcinoma), tumor HK (also transplantable originally mammary adenocarcinoma), Krebs' ascites tumour (Kr2), S37 ascites sarcoma, Nemeth-Keller lymphoma (NK), all maintained in mice H, Gardner lymphosarcoma (LsG, maintained in mice C3H), P388 and/or L1210 leukemia (maintained in DBA2 mice), B16 metastasizing melanocarcinoma (maintained in C57B1/6 mice) and Yoshida ascites reticulosarcoma (Y, maintained in Wistar rats) in experiments according to Jelinek, V. [Neoplasma 12, 469 (1965); ibid 7, 146 (1960)] and in "in vitro" experiments using radioactive precursors of nucleic acids and proteins according to Miko, M. et al. [Cancer Res 39, 4242 (1979); Neoplasma 26, 449 (1979); ibid 16, 161 (1969)] with minor modifications [Mattern, J.: Studies on the Drug Sensitivity of Short Term Cultured Tumour Cell Suspensions. In "Human Tumours in Short Term Culture" (Dendy, P.P. ed.), p.301, Academic Press 1976]. The Cox's proportional-hazards model was used for survival evaluation and optimal dose calculation according to Carter, V.H. et al. [cf Cancer Res. 42, 2963 (1982)].
Eighty female mice H weighing approximately 20 g were divided into four groups: one control group and three experimental groups of 20 animal each. A lethal dose of the Sa37 sarcoma ascitic fluid was implanted intraperitoneally to all the animals. The animals of test groups were treated using the compound suspended in water. The suspension contained the substance in such a concentration that dose 0.6, 0.4 and/or 0.2ml of the suspension p.o. was equal to dose 240, 160 and/or 80 mg/kg p.o., respectively. The drug was administered to the experimental animals once, a day after tumour transplantation. On the tenth day after the tumour transplantation, half of the animals in each group were killed by ether anaesthesia, ascites were emptied after laparotomia and the tumour weight was assessed in all animals from the weight difference before and after laparotomia and ascites removing. In ascites fluid the volume of tumour cell fraction was determined. The remaining animals were left to monitor the time of death and survival time was followed. […] It was also observed that the treated animals survived longer than untreated control animals. […] The results of the experiment are summarized in the following table: Antitumour activity of 6-[2-(2-hydroxyethyl)aminoethyl]5,11-dioxo-5,6-dihydro-11H-indeno[1,2-c]isoquinoline (the substance I, X=2) in S37 sarcoma bearing mice.
In an analogous experiment carried out on the animals with implanted Sa37 sarcoma the substance I (X=2) was administered in seven daily doses, and the substance I (X=3) in four days. The results of the experiment are summarized in the following table: Antitumour activity of 6-[2-(2-hydroxyethyl)aminoethyl]5,11-dioxo-5,6-dihydro-11H-indeno[1,2-c]isoquinoline (the substance I, X=2) and 6-[3-(2-hydroxyethyl)aminopropyl]5,11-dioxo-5,6-dihydro-11H-indeno[1,2-c]isoquinoline (the substance I, X=3) in S37 bearing mice.
In an experiment carried out on the animals with implanted Sa37 sarcoma the substance I (X=0) was administered in eight daily doses (analogously as in example 6).

[3] = test system: Ehrlich tumour; assay: Antitumour activity against solid form of Ehrlich tumour in mice (tumour weight, survival); format: in vivo, mice H
Excerpt: as §1
Sixty female mice H weighing approximately 20 g were divided into three groups: one control group and two experimental groups of 20 animal each. A lethal dose of the 40 Ehrlich tumour homogenate was implanted subcutaneously to all the animals. The animals of test groups were treated using the compounds suspended in water. […] On the fourteenth day after the tumour transplantation, half of the animals in each group were killed by ether anaesthesia, tumours were removed and weighed. The remaining animals were left to monitor the time of death and survival time was followed. […] It was also observed that the treated animals survived longer than untreated control animals.

[4] = test system: leukemia P388; assay: Survival of mice with leukemia P388 after intravenous administration; format: in vivo; settings: mice DBA2 with leukemia P388
Excerpt: as §1, with “(1982)]. […]” for “(1982)].”

COc1cccc2c1C(=O)c1c(O)c3c(c(O)c1C2=O)C[C@@](O)(C(=O)CO)C[C@@H]3O[C@H]1C[C@H](N)[C@H](O)[C@H](C)O1 [DOXORUBICIN]
IC50 ([1]; Rattus norvegicus, YOSHIDA, Precursor [6-3H]Thymidine): 16 µM
IC50 ([1]; Rattus norvegicus, YOSHIDA, Precursor [Uracil-U-14C]uridine): 8 µM

O=C1c2ccccc2-c2c1c1ccccc1c(=O)n2NCCO [I (X=0), 6-[(2-hydroxyethyl)amino]-5,11-dioxo-5,6-dihydro-11H-indeno[1,2-c]isoquinoline]
mean value of the tumour weight in comparison with the untreated control group ([2]; 20 mg/kg s.c.): 68%
mean value of tumour cell fraction in ascites fluid (total ascitocrit) in comparison with the untreated control group ([2]; 20 mg/kg s.c.): 71%
mean value of the tumour weight in comparison with the untreated control group ([2]; 50 mg/kg p.o.): 60%
mean value of tumour cell fraction in ascites fluid (total ascitocrit) in comparison with the untreated control group ([2]; 50 mg/kg p.o.): 68%
mean tumour weight lowered by ([3]; 50 mg/kg p.o. x 8, starting on the first day after tumour transplantation): 13%
Mean survival time in comparison with the untreated control group ([3]; eight daily doses of 25 mg/kg p.o.): 115%
mean tumour weight in the treated animals in comparison with the untreated control group ([3]; single dose of 100 mg/kg p.o.): 72%

Cl.O=C1c2ccccc2-c2c1c1ccccc1c(=O)n2CCNCCO [I (X=2) Hydrochloride, 6-[2-(2-hydroxyethyl)aminoethyl]-5,11-dioxo-5,6-dihydro-11H-indeno[1,2-c]isoquinoline hydrochloride]
IC50 ([1]; Rattus norvegicus, YOSHIDA, Precursor [6-3H]Thymidine, read-out: IC 50): 5 µM
IC50 ([1]; Rattus norvegicus, YOSHIDA, Precursor [Uracil-U-14C]uridine, read-out: IC 50): 7 µM
survival [4]: highly significant increase of survival

O=C1c2ccccc2-c2c1c1ccccc1c(=O)n2CCCNCCO [I (X=3), 6-[3-(2-hydroxyethyl)aminopropyl]-5,11-dioxo-5,6-dihydro-11H-indeno[1,2-c]isoquinoline]
Survival time (T/C, %) ([2]; 10 mg/kg p.o.): 119%
Total ascitocrit (T/C, %) ([2]; 10 mg/kg p.o.): 80^a) %
Tumour weight (T/C, %) ([2]; 10 mg/kg p.o.): 70^b) %
Survival time (T/C, %) ([2]; 20 mg/kg p.o.): 99%
Total ascitocrit (T/C, %) ([2]; 20 mg/kg p.o.): 62^c) %
Tumour weight (T/C, %) ([2]; 20 mg/kg p.o.): 56^c) %
Total ascitocrit (T/C, %) ([2]; 30 mg/kg p.o.): 43^b) %
Tumour weight (T/C, %) ([2]; 30 mg/kg p.o.): 35^b) %
Survival time (T/C, %) ([2]; 30 mg/kg p.o., tox - toxic dose): tox

MITOXANTRON
IC50 ([1]; Precursor [6-3H]Thymidine, read-out: IC 50): 25 µM
IC50 ([1]; Precursor [Uracil-U-14C]uridine, read-out: IC 50): 23 µM
